Holding throughout (assay type): cell-based, Sprague-Dawley rats
Assay [1] has as its system Akt. Kind of assay: Western blot of Akt phosphorylation in VSMC induced by PDGF-BB. As to conditions: for decrease of Akt phosphorylation: 30 μM LAB, 20 mM NAC, 40 μM LY294002, 1 h, then PDGF-BB 10 min, FIG. 4C. On the procedure: (§1) VSMC was washed with PBS and then dissolved in lysis buffer (25 mM Tris HCl, pH 7.4, 25 mM NaCl, 25 mM NaF, 25 mM sodium pyrophosphate, 1 mM sodium vanadate, 2.5 mM EDTA, 2.5 mM EGTA, 0.05% (wt/vol) Triton X-100, 0.5% (wt/vol) SDS, 0.5% (wt/vol) deoxycholate, 0.5% (wt/vol) Nonidet P-40, […], and 1 mM PMSF). The cells were collected and centrifuged at 13,000 rpm for 15 min and the protein concentration of the resulting supernatant was measured by Bradford assay. The proteins were denatured and were subjected to SDS-PAGE and then blotted onto nitrocellulose membranes. The membranes were placed in 5% (w/v) non-fat dry milk in TBS with 0.1% Tween20 (TBS-T) and then placed at room temperature for 3 hrs. The blots were placed at 4° C. along with anti-ERK1/2 or anti-Akt antibodies (Cell signaling Technologh, Berely. Mass., USA) for 16 hrs. The membranes were washed 4 times with TBS-T, added with anti-rabbit IgG antibody conjugated with horseradish peroxidase (1:2,000 diluent) and then placed at room temperature for 1 hr. The immunoreactive bands detected by ECL reagents were developed by Hyperfilm-ECL (Amersham Life Science, Little Chalfont, UK). The bands showing positive responses were quantitated by densitometry and then compared with that of control.
(§2) In FIG. 1B, it is shown that both U0126 (20 μM) and LY294002 (40 μM) inhibited activities of LDH and MTT induced by PDGF-BB. As a way to investigate the signal transduction pathway involved in VSMC proliferation induced by PDGF-BB, an experiment was conducted to examine whether PDGF-BB activates a relatively lower signal transduction pathway such as ERK1/2 and Akt.
(In western blotting, separated proteins are transferred to a membrane and probed.)

In assay [2] the test system is ERK1/2. Kind of assay: Western blot of ERK1/2 phosphorylation in VSMC induced by PDGF-BB. Here is the method:
as §1, §2

For assay [3], the system named is vascular smooth muscle cells. Put plainly: VSMC proliferation induced by PDGF-BB (LDH and MTT assays). To be noted: data not shown. An excerpt: Vascular smooth muscle cells ('VSMC' hereinafter) were separated from thoracic aorta of a Sprague-Dawley weighted about 100-150 g by using collagenase digestion method and then cultured them according to the method disclosed in previous studies [[…], et al. Role of p44/p42 MAP kinase in the age-dependent increase in vascular smooth muscle cell proliferation and neointimal formation. Arterioscler Thromb Vasc Biol. Feb. 1 2003; 23(2):204-210.; Hamaguchi A, Kim S, Izumi Y, et al. Contribution of extracellular signal-regulated kinase to angiotensin II-induced transforming growth factor-beta1 expression in vascular smooth muscle cells. Hypertension. July 1999; 34(1):126-131]. […] The VSMC was treated in a culture medium not containing serum for 24 hrs prior to treatment with PDGF-BB, and the reaction according to the presence or absence of PDGF-BB was analyzed after pretreating with LAB or other reagents. […] The cells were then washed twice with PBS, lysed by using 0.5% Triton-X100, and then the activity of lactate dehydronase (LDH) was measured by using CytoTox-ONETM assay kit (Promega, Madison, Wis., USA) with fluorescence at […]. […]
(In general: Formazan colour is commonly taken as a measure of viable cells.)

Assay [4] has as its system vascular smooth muscle cells. Put plainly: VSMC migration induced by PDGF-BB (modified Boyden chamber). As to conditions: PDGF-BB 10 ng/mL as chemoattractant, 16 hrs. Here is the method: The migration of VSMC with 8 μm of pores was measured by using modified Boyden chamber method [Brown C, Pan X, Hassid A. Nitric oxide and C-type atrial natriuretic peptide stimulate primary aortic smooth muscle cell migration via a cGMP-dependent mechanism: relationship to microfilament dissociation and altered cell morphology. Circ Res. Apr. 2 1999; 84(6):655-667], which utilizes collagen-coated transwell tissue culture inserts consisting of polycarbonate membrane. 3.0×10^6 cells/mL of the above vascular smooth muscle cells were allowed to float in a culture medium without serum, treated with LAB with various concentrations and then cultured at 37° C. for 30 min. Then, the cells were treated with either 0.5 mL DMEM without serum or 0.5 mL DMEM without serum along with PDGF-BB 10 ng/mL and then placed in the lower part of a chamber. 100 μL of the folating materials of the above cells (final 3.0×10^5 cells/well) was added to the upper part of the chamber and cultured at 37° C. for 16 hrs. The cells were then fixed, dyed with hematoxylin, and filters were dried and developed.
It is known that […] plays an important role in proliferation of VSMC as well as development of atherosclerosis. To investigate whether LAB decreases the migration of VSMC induced by PDGF-BB, an experiment was performed as follows by using the aforementioned modified Boyden chamber method.

The subject of assay [5] is intracellular reactive oxygen species. Put plainly: Intracellular reactive oxygen species in VSMC (DCF fluorescence). As to conditions: PDGF-BB 10 ng/mL vs control. Here is the method: The amount of reactive oxygen species in cells was measured as described in the previous report [Hamaguchi A, Kim S, Izumi Y, et al. Contribution of extracellular signal-regulated kinase to angiotensin II-induced transforming growth factor-beta1 expression in vascular smooth muscle cells. Hypertension. July 1999; 34(1):126-131]. VSMC was cultured in a culture medium without serum for 24 hrs to stop cell proliferation and then pretreated with LAB with various concentrations of 1, 5, 10, 20, 30 μM for 1 hr. The cells were treated with either 10 ng/mL of PDGF-BB for 10 min or with 100 μM H2O2 for 1 min and then cultured in the presence of 5-(and-6)-chloromethyl-2′,7′-dichlorohydrofluorescein diacetate(CM-H2DCF-DA: Molecular Probes Inc., Eurogene, Oreg., USA) in the dark room for 10 min and cultured cells and generation of reactive oxygen species were observed by using fluorescent microscope.
First, the amount of intracellular reactive oxygen species generated by PDGF-BB was measured by using peroxide-sensitive fluorophore DCF. As shown in FIG. 3A (B-1), the amount of intracellular reactive oxygen species generated by PDGF-BB evaluated with DCF fluorescence was 2.7 times greater. […] In this experiment, LAB was treated with PDGF-BB for 10 min. When LAB was pretreated, the amount of DCF fluorescence was decreased as compared to when it was treated only with PDGF-BB [FIG. 3A(A)]. […] Further, LAB decreased the activity of hydrogen peroxide, which increases the generation of intracellular reactive oxygen species, in proportion to its concentration (FIG. 3A(C)).

With `O=c1cc(N2CCOCC2)oc2c(-c3ccccc3)cccc12` [LY294002, (2-(4-morpholinyl)-8-phenyl)-4H-1-benzopyran-4-one, reference compound], the “decrease of Akt phosphorylation” value in assay [1] stood at 3.5 folds.

Consider `CC(=O)N[C@@H](CS)C(=O)O` [NAC, N-acetylcysteine, reference compound], for which, in assay [2] (30 μM LAB, 20 mM NAC, 1 h, then PDGF-BB 10 min, FIG. 5C), the “decrease of ERK1/2 phosphorylation” value worked out at 0.6 fold. Besides, in assay [1], the “decrease of Akt phosphorylation” value is reported as 3.4 folds.

On to `Oc1ccc(-c2nc(-c3ccncc3)c(-c3ccc(F)cc3)[nH]2)cc1` [SB202190, reference compound], for which the “inhibitory activity against VSMC proliferation induced by PDGF-BB” value in assay [3] is on record as “no distinct inhibitory activity”.

In the case of “PDGF-BB: platelet-derived growth factor (Sigma-Aldrich), stimulus of VSMC proliferation and migration [reference compound]”, the “increase of VSMC migration” value in assay [4] is reported as “about 60%”. Moreover, the “amount of intracellular reactive oxygen species (DCF fluorescence), increase” value in assay [5] was found to be 2.7 times. The “increase of ERK1/2 activity” value in assay [2] (treated with PDGF-BB 10 ng/mL, FIG. 5A) was found to be 11 folds. For the same compound, in assay [1] (treated with PDGF-BB 10 ng/mL, FIG. 4A), the “increase of Akt activity” value worked out at 7 folds.

(Values after US20090227671A1, “Prevention and treatment of atherosclerosis with lithospermate B” (Industry-Academic Cooperation Foundation, priority 2005, published 2009).)
